Test results: patent US9365588B2, “Benzoxazines as modulators of ion channels” (Vertex Pharmaceuticals Incorporated, priority 2011, dated 2016)

Molecular target: human NaV 1.7 (Homo sapiens, UniProt Q15858)
Assay: E-VIPR optical membrane potential assay with electrical stimulation
Format: cell-based
Conditions: sodium channel inhibition; read-out: Binned Activity Data (IC50)
Outline: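 Membrane-potential read-out: background-subtracted 460 nm/580 nm ratio during a 9 s current-controlled stimulus, 400 Hz scan. Before stimulation, NaV1.7-HEK cells carried coumarin/oxonol dye and compound (final DMSO 0.625%) for 20–35 min at room temperature; tetracaine 125 μM served as positive control.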

human NaV 1.7, sequence (Q15858 whole entry): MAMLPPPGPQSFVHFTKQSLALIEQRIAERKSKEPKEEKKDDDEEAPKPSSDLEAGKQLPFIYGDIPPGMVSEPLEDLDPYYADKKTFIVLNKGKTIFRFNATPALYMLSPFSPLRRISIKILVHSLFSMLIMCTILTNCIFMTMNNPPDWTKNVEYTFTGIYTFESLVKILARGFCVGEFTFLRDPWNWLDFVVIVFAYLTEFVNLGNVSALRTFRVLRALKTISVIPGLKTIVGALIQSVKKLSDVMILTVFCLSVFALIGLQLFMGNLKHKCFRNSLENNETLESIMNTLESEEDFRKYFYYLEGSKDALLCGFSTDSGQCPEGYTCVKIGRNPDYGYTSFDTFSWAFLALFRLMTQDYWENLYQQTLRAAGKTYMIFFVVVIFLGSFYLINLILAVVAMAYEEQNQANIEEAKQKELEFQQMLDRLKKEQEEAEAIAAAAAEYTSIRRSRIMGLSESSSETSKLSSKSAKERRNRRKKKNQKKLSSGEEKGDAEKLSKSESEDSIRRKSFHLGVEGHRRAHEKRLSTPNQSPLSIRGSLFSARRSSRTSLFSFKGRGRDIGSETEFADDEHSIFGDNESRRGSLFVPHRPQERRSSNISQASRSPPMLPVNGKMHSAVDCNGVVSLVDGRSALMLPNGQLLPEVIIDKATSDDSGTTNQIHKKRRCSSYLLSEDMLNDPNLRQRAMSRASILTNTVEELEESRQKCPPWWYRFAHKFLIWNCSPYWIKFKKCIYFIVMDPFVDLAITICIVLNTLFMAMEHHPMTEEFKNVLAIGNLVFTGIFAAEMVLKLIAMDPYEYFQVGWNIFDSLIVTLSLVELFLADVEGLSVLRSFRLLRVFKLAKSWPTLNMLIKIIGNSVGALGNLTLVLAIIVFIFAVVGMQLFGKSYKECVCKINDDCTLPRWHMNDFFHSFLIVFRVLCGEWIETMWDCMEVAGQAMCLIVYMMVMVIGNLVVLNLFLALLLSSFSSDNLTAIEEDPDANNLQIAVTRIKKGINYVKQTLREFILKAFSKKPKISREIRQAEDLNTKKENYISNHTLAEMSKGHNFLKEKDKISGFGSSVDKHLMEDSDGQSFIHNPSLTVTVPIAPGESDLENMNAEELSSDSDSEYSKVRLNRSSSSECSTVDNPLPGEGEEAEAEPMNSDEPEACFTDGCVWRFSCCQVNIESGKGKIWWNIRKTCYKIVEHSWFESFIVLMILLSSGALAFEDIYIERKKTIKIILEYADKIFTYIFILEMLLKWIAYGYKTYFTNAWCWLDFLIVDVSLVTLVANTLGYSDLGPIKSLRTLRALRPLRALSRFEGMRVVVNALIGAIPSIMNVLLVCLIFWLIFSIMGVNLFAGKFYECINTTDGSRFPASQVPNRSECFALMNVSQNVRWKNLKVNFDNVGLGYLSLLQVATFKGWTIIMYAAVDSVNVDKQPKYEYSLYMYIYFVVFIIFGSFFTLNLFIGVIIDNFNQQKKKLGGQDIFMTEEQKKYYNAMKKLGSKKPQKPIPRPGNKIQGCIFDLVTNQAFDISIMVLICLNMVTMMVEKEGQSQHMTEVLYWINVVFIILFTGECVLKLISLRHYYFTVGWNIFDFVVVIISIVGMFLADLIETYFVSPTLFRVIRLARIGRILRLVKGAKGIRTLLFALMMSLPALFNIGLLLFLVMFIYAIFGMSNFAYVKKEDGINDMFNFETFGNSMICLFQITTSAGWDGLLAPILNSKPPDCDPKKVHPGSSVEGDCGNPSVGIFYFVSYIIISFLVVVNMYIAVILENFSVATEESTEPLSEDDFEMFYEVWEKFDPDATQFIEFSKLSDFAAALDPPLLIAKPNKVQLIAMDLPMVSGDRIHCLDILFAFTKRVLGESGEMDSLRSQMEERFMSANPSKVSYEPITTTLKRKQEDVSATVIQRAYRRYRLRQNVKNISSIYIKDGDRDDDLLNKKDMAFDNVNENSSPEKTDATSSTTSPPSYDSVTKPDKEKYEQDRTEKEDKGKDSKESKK

IC50 [nM]	SMILES
≤ 2000	COc1cc(C(F)(F)F)ccc1C(=O)N1CCC2(CC1)Oc1ccccc1-c1c2cnn1C [Compound 574]
≤ 2000	CC(C)NS(=O)(=O)c1ccc(C(=O)N2CCC3(CC2)Oc2ccc(F)cc2-c2nn(C)cc23)cc1 [Compound 580]
≤ 2000	CC(C)Oc1ccc(C(=O)N2CCC3(CC2)Oc2ccccc2-c2c3cnn2C)c(Cl)c1 [Compound 581]
≤ 2000	CCn1ncc2c1-c1ccccc1OC21CCN(C(=O)c2ccc(S(C)(=O)=O)c(C)c2)CC1 [Compound 582]
≤ 2000	Cc1cc(C(=O)N2CCC3(CC2)Oc2ccccc2-c2c3ncn2C)ccc1OC(C)C [Compound 583]
> 5000	COc1cc(C(=O)N2CCC3(CC2)Oc2ccccc2-c2c3cnn2C)ccc1S(=O)(=O)C(C)C [Compound 586]
≤ 2000	COCCOc1ccc(C(=O)N2CCC3(CC2)Oc2ccccc2-c2c3cnn2C)cc1Cl [Compound 587]
≤ 2000	COc1cc(C(=O)N2CCC3(CC2)Oc2ccccc2-c2nn(CC(F)(F)F)cc23)ccc1OCCC(C)C [Compound 589]
≤ 2000	CC(C)n1ncc2c1-c1ccccc1OC21CCN(C(=O)c2ccc(S(=O)(=O)C(C)C)cc2)CC1 [Compound 594]
≤ 2000	Cn1cc2c(n1)-c1ccccc1OC21CCN(C(=O)c2ccc3[nH]ncc3c2)CC1 [Compound 595]
≤ 2000	Cn1cc2c(n1)-c1ccccc1OC21CCN(C(=O)c2ccc(CC(C)(C)O)cc2)CC1 [Compound 598]
≤ 2000	CC(C)Oc1ccc(C(=O)N2CCC3(CC2)Oc2ccccc2-c2c3cnn2C)c(F)c1 [Compound 599]
≤ 2000	Cn1ncc2c1-c1ccccc1OC21CCN(C(=O)c2cn(C)c3cccnc23)CC1 [Compound 600]
≤ 2000	COc1ccc(-n2ncc(C(=O)N3CCC4(CC3)Oc3ccccc3-c3c4cnn3C)c2C)cc1 [Compound 601]
≤ 2000	Cc1cccc(C(=O)N2CCC3(CC2)Oc2ccccc2-c2c3cnn2C)c1OC(C)C [Compound 608]
≤ 2000	Cc1cc(C(=O)N2CCC3(CC2)Oc2ccccc2-c2c3cnn2C)ccc1OC(C)(C)C [Compound 610]
≤ 2000	Cc1nc2ccc(C(=O)N3CCC4(CC3)Oc3ccccc3-c3nn(C)cc34)cc2s1 [Compound 611]
≤ 2000	CC(C)S(=O)(=O)c1ccc(C(=O)N2CCC3(CC2)Oc2ccccc2-c2c3cnn2C)cc1 [Compound 613]
> 5000	Cn1ncc2c1-c1ccccc1OC21CCN(C(=O)c2cccc(OC(F)(F)F)c2)CC1 [Compound 619]

IC50 [nM]	SMILES
≤ 2000	COc1ccc(C(=O)N2CCC3(CC2)Oc2ccccc2-c2c3cnn2C)cc1OC [Compound 620]
≤ 2000	Cn1ncc2c1-c1ccccc1OC21CCN(C(=O)c2ccc(S(=O)(=O)C(F)F)cc2)CC1 [Compound 626]
≤ 2000	Cn1ncc2c1-c1ccccc1OC21CCN(C(=O)c2ccc(OC(F)(F)F)c(Cl)c2)CC1 [Compound 636]
≤ 2000	COc1cc(C(C)(C)O)ccc1C(=O)N1CCC2(CC1)Oc1ccccc1-c1c2cnn1C [Compound 637]
2000 to 5000	COc1ncccc1C(=O)N1CCC2(CC1)Oc1ccccc1-c1c2cnn1C [Compound 642]
2000 to 5000	Cn1ncc2c1-c1ccccc1OC21CCN(C(=O)c2ccc(S(=O)(=O)C(C)(C)C)cc2)CC1 [Compound 643]
> 5000	Cn1ncc2c1-c1ccccc1OC21CCN(C(=O)c2cccc3cnn(C)c23)CC1 [Compound 644]
≤ 2000	COc1ccc(C(=O)N2CCC3(CC2)Oc2ccccc2-c2nn(C)cc23)c(OC)c1OC [Compound 646]
≤ 2000	CC(C)Oc1ccc(C(=O)N2CCC3(CC2)Oc2ccccc2-c2c3cnn2C)cc1F [Compound 650]
≤ 2000	Cn1ncc2c1-c1ccccc1OC21CCN(C(=O)c2cccc3cccnc23)CC1 [Compound 651]
≤ 2000	Cn1cc2c(n1)-c1ccccc1OC21CCN(C(=O)c2ccnc3ccccc23)CC1 [Compound 652]
> 5000	Cn1ncc2c1-c1ccccc1OC21CCN(C(=O)c2nccc3ccccc23)CC1 [Compound 657]
≤ 2000	Cn1ncc2c1-c1ccccc1OC21CCN(C(=O)c2ccc(S(=O)(=O)C(F)(F)F)cc2)CC1 [Compound 663]
2000 to 5000	CC(C)[S+]([O-])c1ccc(C(=O)N2CCC3(CC2)Oc2ccccc2-c2c3cnn2C)cc1 (stereo not shown) [Compound 666]
> 5000	Cn1ncc2c1-c1ccccc1OC21CCN(C(=O)c2ccc(Cl)cc2S(C)(=O)=O)CC1 [Compound 667]
≤ 2000	COc1cc(C(=O)N2CCC3(CC2)Oc2ccccc2-c2c3cnn2C)ccc1OC[C@@H](C)OC [Compound 668]
≤ 2000	COc1ccccc1C(=O)N1CCC2(CC1)Oc1ccccc1-c1c2cnn1C [Compound 672]
≤ 2000	COc1c(Cl)cccc1C(=O)N1CCC2(CC1)Oc1ccccc1-c1c2cnn1C [Compound 673]

More lines, now with the values behind:

SMILES	IC50 [nM]
COc1cc(OC)c(C(=O)N2CCC3(CC2)Oc2cc(Cl)ccc2-n2cccc23)cc1CO [Compound 576]	≤ 2000
COc1ccc(C(=O)N2CCC3(CC2)Oc2cc(Cl)ccc2-n2cccc23)c(OC)c1 [Compound 578]	≤ 2000
CC(C)S(=O)(=O)c1ccc(C(=O)N2CCC3(CC2)Oc2ccccc2-n2cccc23)cc1 [Compound 579]	≤ 2000
COc1cc(C(=O)N2CCC3(CC2)Oc2ccccc2-n2cccc23)ccc1OCC(=O)O [Compound 585]	2000 to 5000
COc1cc(C(=O)N2CCC3(CC2)Oc2cc(F)ccc2-n2cccc23)ccc1OC[C@@H](O)CO [Compound 588]	≤ 2000
CCNS(=O)(=O)c1ccc(C(=O)N2CCC3(CC2)Oc2ccccc2-n2c(C(F)(F)F)ccc23)cc1 [Compound 590]	≤ 2000
COc1cc(C(=O)N2CCC3(CC2)Oc2cc(F)ccc2-n2cccc23)ccc1O[C@H]1CCOC1 [Compound 592]	≤ 2000
Cn1ncc2c1-c1ccccc1OC21CCN(C(=O)c2ccccc2OCC(F)(F)F)CC1 [Compound 593]	≤ 2000
COCCOc1ccc(C(=O)N2CCC3(CC2)Oc2ccccc2-n2c(C)ccc23)cc1OC [Compound 596]	≤ 2000
COc1cc(C(=O)N2CCC3(CC2)Oc2ccccc2-n2cccc23)ccc1OCCC(C)C [Compound 602]	≤ 2000
COc1c(C)cccc1C(=O)N1CCC2(CC1)Oc1cc(Cl)ccc1-n1cccc12 [Compound 605]	≤ 2000
CC(C)(O)c1ccc(C(=O)N2CCC3(CC2)Oc2ccccc2-n2c3ccc2S(C)(=O)=O)cc1 [Compound 607]	2000 to 5000
COc1cc(C(=O)N2CCC3(CC2)Oc2cc(Cl)ccc2-n2cccc23)ccc1C(C)CO (stereo not shown) [Compound 609]	≤ 2000
COc1cc(C(=O)N2CCC3(CC2)Oc2cc(F)ccc2-n2cccc23)ccc1C1(O)COC1 [Compound 612]	≤ 2000
COc1cccc(F)c1C(=O)N1CCC2(CC1)Oc1ccccc1-n1c2ccc1S(C)(=O)=O [Compound 614]	2000 to 5000
COc1cc(C(=O)N2CCC3(CC2)Oc2cc(F)ccc2-c2c3cnn2C)ccc1OC(C)C [Compound 617]	≤ 2000
O=C(c1ccccc1OC(F)F)N1CCC2(CC1)Oc1ccccc1-n1c(C(F)(F)F)ccc12 [Compound 618]	≤ 2000
CC(C)S(=O)(=O)c1ccc(C(=O)N2CCC3(CC2)Oc2ccccc2-n2c(C(F)(F)F)ccc23)cc1 [Compound 621]	≤ 2000
COc1cc(C(C)(C)O)ccc1C(=O)N1CCC2(CC1)Oc1ccccc1-n1c(C#N)ccc12 [Compound 622]	≤ 2000
Cn1ncc2c1-c1ccc(Cl)cc1OC21CCN(C(=O)c2ccccc2OC(F)F)CC1 [Compound 623]	≤ 2000

SMILES	IC50 [nM]
COc1cc(C)ccc1C(=O)N1CCC2(CC1)Oc1cc(Cl)ccc1-n1cccc12 [Compound 627]	≤ 2000
COCCOc1cc(F)c(C(=O)N2CCC3(CC2)Oc2cc(Cl)ccc2-n2cccc23)cc1OC [Compound 628]	≤ 2000
CCCOc1ccc(C(=O)N2CCC3(CC2)Oc2cc(F)ccc2-n2cccc23)cc1C(F)(F)F [Compound 631]	≤ 2000
COc1cc(C(=O)N2CCC3(CC2)Oc2cc(F)ccc2-n2cccc23)ccc1OCC1CCCO1 (stereo not shown) [Compound 632]	≤ 2000
Cc1cc(C(C)(C)O)ccc1C(=O)N1CCC2(CC1)Oc1ccccc1-n1c(C#N)ccc12 [Compound 633]	≤ 2000
COc1cc(C(=O)N2CCC3(CC2)Oc2cc(Cl)ccc2-n2cccc23)ccc1CCO [Compound 635]	≤ 2000
C[C@@](O)(CO)c1ccc(C(=O)N2CCC3(CC2)Oc2ccccc2-n2c(C(F)(F)F)ccc23)cc1 [Compound 640]	≤ 2000
Cn1ncc2c1-c1cc(Cl)ccc1OC21CCN(C(=O)c2ccccc2OC(F)(F)F)CC1 [Compound 653]	≤ 2000
Cc1cc(C(=O)N2CCC3(CC2)Oc2ccccc2-n2c(C#N)ccc23)ccc1OC(C)C [Compound 655]	≤ 2000
Cc1nc(C(=O)N2CCC3(CC2)Oc2ccccc2-n2c(C(F)(F)F)ccc23)ccc1OC(C)C [Compound 658]	≤ 2000
N#Cc1ccc2n1-c1ccccc1OC21CCN(C(=O)c2ccc(F)c(Cl)c2)CC1 [Compound 659]	> 5000
COc1cc(OC)c(C(=O)N2CCC3(CC2)Oc2cc(F)ccc2-n2cccc23)cc1CO [Compound 660]	≤ 2000
CC(C)S(=O)(=O)c1ccc(C(=O)N2CCC3(CC2)Oc2cc(F)ccc2-c2c3cnn2C)cc1 [Compound 662]	2000 to 5000
COc1ccc(C(=O)N2CCC3(CC2)Oc2ccccc2-c2c3cnn2C)c(OC(F)(F)F)c1 [Compound 664]	≤ 2000
COc1c(F)cccc1C(=O)N1CCC2(CC1)Oc1cc(Cl)ccc1-n1c(C#N)ccc12 [Compound 665]	≤ 2000
CCc1ccc(C(=O)N2CCC3(CC2)Oc2cc(COC)ccc2-n2cccc23)cc1OC [Compound 669]	≤ 2000
Cn1cc(C(=O)N2CCC3(CC2)Oc2cc(Cl)ccc2-n2cccc23)ccc1=O [Compound 670]	> 5000
N#Cc1ccc2n1-c1ccccc1OC21CCN(C(=O)c2ccc(O)cc2)CC1 [Compound 671]	≤ 2000
CCn1ncc2c1-c1cc(F)ccc1OC21CCN(C(=O)c2ccccc2OC)CC1 [Compound 674]	2000 to 5000
